Measured values taken from ChEMBL document CHEMBL5604063, “ASAP - DENV-2 NS2B-NS3 protease fluorescence dose response” (2024).
Values joined by “and” are separate entries in the source; they are usually repeats but may differ in a detail not shown here. Equal values may be shown once.

Assays:
Genome polyprotein [1] = target: T1, Genome polyprotein (dengue virus type 2, UniProt P29990); type: functional, Thailand/16681/1984
Genome polyprotein [2] = target: T1, Genome polyprotein; type: functional, Thailand/16681/1984; remark: listed apart in the source

T1 sequence (P29990 1346-1475 limits assumed): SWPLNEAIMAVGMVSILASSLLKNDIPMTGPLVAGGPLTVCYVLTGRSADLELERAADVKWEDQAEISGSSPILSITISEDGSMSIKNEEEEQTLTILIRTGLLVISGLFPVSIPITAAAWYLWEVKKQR
T1 sequence (P29990 1476-2093 limits assumed): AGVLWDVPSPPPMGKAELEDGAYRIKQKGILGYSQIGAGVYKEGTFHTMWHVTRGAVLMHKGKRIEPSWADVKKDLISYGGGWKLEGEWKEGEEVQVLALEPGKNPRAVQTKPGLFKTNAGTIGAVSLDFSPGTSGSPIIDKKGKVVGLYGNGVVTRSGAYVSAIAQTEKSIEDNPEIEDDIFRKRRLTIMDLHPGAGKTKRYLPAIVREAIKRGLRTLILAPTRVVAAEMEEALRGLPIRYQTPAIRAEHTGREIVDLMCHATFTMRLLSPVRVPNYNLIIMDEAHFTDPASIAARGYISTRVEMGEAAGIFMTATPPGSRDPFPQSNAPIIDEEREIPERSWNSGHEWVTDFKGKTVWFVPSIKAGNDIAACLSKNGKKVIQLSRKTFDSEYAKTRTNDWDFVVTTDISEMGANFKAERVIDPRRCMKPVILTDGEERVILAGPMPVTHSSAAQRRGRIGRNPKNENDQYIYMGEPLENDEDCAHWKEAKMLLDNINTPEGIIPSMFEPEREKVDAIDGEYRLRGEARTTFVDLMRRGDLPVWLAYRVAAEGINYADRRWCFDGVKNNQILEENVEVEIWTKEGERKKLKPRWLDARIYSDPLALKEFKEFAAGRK

Structure (SMILES) | IC50 (Genome polyprotein [1]) | IC50 (Genome polyprotein [2])
O=C(O)c1ccc(-c2cc(NC(=O)c3cc(F)cc4[nH]ncc34)cc3c2CNC3)cc1 | 75.4 µM | 54.7 µM and 75 µM
NCCc1csc2cc(C(=O)Nc3cc([C@H]4CCOC4)ccn3)ccc12 | > 99.5 µM | > 100 µM
Cc1c(C(=O)Nc2ccc3c(c2)CCS3(=O)=O)cc(C2CC2)n1C | > 99.5 µM | > 100 µM
Cc1c(C(=O)Nc2ccc3c(c2)CCCC(=O)N3C)cc(C2CC2)n1C | > 99.5 µM | > 100 µM
N#Cc1cccc(-c2nc3c(C(=O)Nc4ccc5c(c4)CNC5)cc(F)cc3[nH]2)c1 | 6.2 µM and 4.83 µM | 10.9 µM and 29.7 µM
COC[C@]1(c2nc3c(C(=O)Nc4ccc5c(c4)CNC5)cc(F)cc3[nH]2)CCOC1 | > 99.5 µM | > 100 µM
N#Cc1c[nH]c2ccc(C(=O)Nc3ccc4c(c3)CNC4)cc12 | > 99.5 µM | > 100 µM
CC(C)Cn1cc2c(C(=O)Nc3ccc4c(c3)CNC4)cc(Cl)cc2n1 | > 99.5 µM | > 100 µM
O=C(Nc1ccc2c(c1)CNC2)c1cc(Cl)cc2nn(C3COC3)cc12 | > 99.5 µM | > 100 µM
O=C(Nc1cc(-c2cccnc2)ccn1)c1cn2c(n1)CCC2 | > 99.5 µM | > 100 µM
CC1(c2nc(C(=O)Nc3cc(-c4cccnc4)ccn3)no2)CC1 | > 99.5 µM | > 100 µM
COC(=O)c1cc(C(=O)Nc2ccc3c(c2)CNC3)cc2[nH]ccc12 | > 99.5 µM | > 100 µM
N#Cc1cc2c(cc1NC(=O)c1cc(F)cc3[nH]ncc13)CNC2 | 32.5 µM and 25.1 µM | 16.3 µM and 32 µM
Cc1c(C(=O)Nc2cc(-c3cccnc3)ccn2)cc(C#N)n1C | 57.7 µM | 53.3 µM and 62.1 µM
CC1=C(c2cc(F)cc(C(=O)Nc3ccc4c(c3)CNC4)c2)CCCC1 | > 99.5 µM | > 100 µM
CCOc1cccc(-c2cccc(NC(=O)c3cc(C4CC4)n(C)c3C)n2)c1 | > 99.5 µM | > 100 µM
Fc1cc(CNc2ccc3c(c2)CNC3)c2cc[nH]c2c1 | > 99.5 µM | > 100 µM

Structure (SMILES) | IC50 (Genome polyprotein [1]) | IC50 (Genome polyprotein [2])
O=C(Nc1ccc2c(c1)CNC2)c1cc(F)cc2[nH]c(-c3ccccc3F)nc12 | 7.91 µM and 4.23 µM | 18.5 µM and 33.8 µM
CCc1cccc(-c2nc3c(C(=O)Nc4ccc5c(c4)CNC5)cc(F)cc3[nH]2)c1 | 14.5 µM and 7.53 µM | 88.9 µM and > 100 µM
O=C(Nc1ccc2c(c1)CNC2)c1cc(F)cc2[nH]c(-c3ccc(F)cc3)nc12 | 4.84 µM and 4.4 µM | 9.17 µM and 43.9 µM
Cc1ccc(NC(=O)c2cc(C3CC3)n(C)c2C)cc1-c1cccnc1 | > 99.5 µM | > 100 µM
C=CC[C@H]1NCc2cc(N[C@H](C(=O)NCC(F)F)c3cc(Cl)cc(C4CC4)c3)ccc21 | > 99.5 µM | > 100 µM
COCCN1C(=O)CCc2cc(NC(=O)c3cc(C4CC4)n(C)c3C)ccc21 | > 99.5 µM | > 100 µM
O=C(Nc1cc(-c2cccnc2)ccn1)c1cnn2c1CCCC2 | 18 µM and 13.8 µM | 16.5 µM and 19.7 µM
Cc1c(C(=O)Nc2cccc(Cn3ccccc3=O)c2)cc(C2CC2)n1C | > 99.5 µM | > 100 µM
CC(C)(c1nc2c(C(=O)Nc3ccc4c(c3)CNC4)cc(F)cc2[nH]1)S(C)(=O)=O | 33.6 µM and 26.3 µM | 34.3 µM and 51.7 µM
NCCc1csc2cc(C(=O)Nc3ccc4c(c3)CNC4)ccc12 | > 99.5 µM | > 100 µM
Cc1c(C(=O)Nc2cc(C#N)cn(C)c2=O)cc(C2CC2)n1C | > 99.5 µM | > 100 µM
Cn1c(=O)[nH]c2cc(C(=O)Nc3ccc4c(c3)CNC4)cc(Br)c21 | > 99.5 µM | 60 µM and 52.9 µM
O=C(Nc1cc(-c2cccnc2)ccn1)c1cc(C2CC2)oc1C1CC1 | > 99.5 µM | > 100 µM
O=C(Nc1cc2c(c(C3=CCS(=O)(=O)CC3)c1)CNC2)c1cc(F)cc2[nH]ncc12 | 41.1 µM and 29.7 µM | 34.6 µM and 46.6 µM
O=C(Nc1cc(-c2cccnc2)ccn1)c1sc2c(c1Br)CNC2 | > 99.5 µM | > 100 µM
Cn1ncc(C(=O)Nc2cc(-c3cccnc3)ccn2)c1C1CC1 | > 99.5 µM | > 100 µM
O=C(Nc1cc2c(c(C3=CCOCC3)c1)CNC2)c1cc(F)cc2[nH]ncc12 | 29.7 µM and 19.8 µM | 27.2 µM and 45.2 µM
